Assay results published in patent US8598193B2, “Polycyclic agents for the treatment of respiratory syncytial virus infections” (Biota Scientific Management Pty Ltd., priority 2003, dated 2013).
Values after ≈ are worked out from the molar mass of the structure shown. Like-named read-outs stand apart in the source and are kept apart here.

System: RSV A2
Test: RSV antiviral cytopathic effect (CPE) assay, MTT readout
Type: cell-based
Details: human respiratory syncytial virus, HEp-2, 120 h, RSV A2 in HEp2 cells, CPE assay, MTT, approx. 5 days
Experimental: Method Q: RSV Antiviral Assay Protocol
Compounds of the invention were tested for their antiviral activity against respiratory syncytial virus. Cytopathic effect (CPE) assays were performed essentially as described in the literature (see for example Watanabe et al, 1. Virological Methods, 1994, 48, 257). Serial dilutions of the test compounds were made in assay medium. HEp2 cells (1.0×10^4 cells/well) were infected with RSV at a low multiplicity of infection (e.g. RSV A2 at an moi of 0.01) and 100 μL added to cultures assessing antiviral activity and cells without virus added to those assessing compound cytotoxicity. Assays were incubated for approximately 5 days at 37° C. in a 5% CO2 atmosphere. The extent of CPE was determined via metabolism of the vital dye 3-(4,5-dimethylthiaxol-2-yl)-2,5-diphenyltetrazolium bromide (MTT). A 3 mg/ml stock of MTT was made in assay medium and 100 μL added to each well, taking the final MTT concentration to […]. After 2 hours incubation at 37° C., the media-MTT solution was removed and 200 μL of isopropanol was added to dissolve the vital dye crystals. Plates were shaken and the absorbance read at 540 nm. The compound concentrations that inhibited CPE by 50% (EC50) and developed cytotoxicity (CC50) were calculated using an Excel curve fitting program.

[1] = read-out: Activity Range (RSV A2 antiviral EC50), compounds of Table 2
[2] = read-out: Activity Range (RSV A2 antiviral EC50), compounds of Table 3

SMILES | EC50 [1] [mg/L] | EC50 [2] [mg/L]
COc1ccc(-c2ocnc2C(=O)N2CCN3C(=O)c4ccccc4C32c2ccc(Cl)cc2)cc1 (stereo not drawn) [Compound 332] | < 0.1 | –
COc1ccc(CC(=O)N2CCN3C(=O)c4ccncc4C23c2ccc(Cl)cc2)cc1 (stereo not drawn) [Compound 351] | – | 0.25 to 1 (≈ 0.576 to 2.3 µM)
CCc1ccc(C23c4cnccc4C(=O)N2CCN3C(=O)c2ccc(F)cc2)cc1 (stereo not drawn) [Compound 361] | – | 0.1 to 0.25 (≈ 0.249 to 0.623 µM)
O=C(c1ccc(Cl)nc1)N1CCN2C(=O)c3ccncc3C12c1ccc(Cl)cc1 (stereo not drawn) [Compound 364] | – | 0.25 to 1 (≈ 0.588 to 2.35 µM)
O=C(c1ccc(F)nc1)N1CCN2C(=O)c3ccncc3C12c1ccc(Cl)cc1 (stereo not drawn) [Compound 368] | – | < 0.1
O=C(c1ccc(F)nc1)N1CCN2C(=O)c3cccnc3C12c1ccc(Cl)cc1 (stereo not drawn) [Compound 369] | – | 0.1 to 0.25 (≈ 0.245 to 0.612 µM)
O=C(c1ccc(F)nc1)N1CCN2C(=O)c3ncccc3C12c1ccc(Cl)cc1 (stereo not drawn) [Compound 370] | – | 0.25 to 1 (≈ 0.612 to 2.45 µM)
CCc1ccc(C23c4cnccc4C(=O)N2CCN3C(=O)Cc2ccc(OC)cc2)cc1 (stereo not drawn) [Compound 371] | – | 0.25 to 1 (≈ 0.585 to 2.34 µM)
CCc1ccc(C23c4c[n+]([O-])ccc4C(=O)N2CCN3C(=O)c2ccc(F)cc2)cc1 (stereo not drawn) [Compound 372] | – | 0.25 to 1 (≈ 0.599 to 2.4 µM)
Cc1nnsc1C(=O)N1CCN2C(=O)c3ccncc3C21c1ccc(Cl)cc1 (stereo not drawn) [Compound 386] | – | 0.1 to 0.25 (≈ 0.243 to 0.607 µM)
O=C(c1csc(-c2ccccc2)n1)N1CCN2C(=O)c3ccncc3C12c1ccc(Cl)cc1 (stereo not drawn) [Compound 391] | – | < 0.1
Cc1noc(C)c1C(=O)N1CCN2C(=O)c3ccncc3C21c1ccc(Cl)cc1 (stereo not drawn) [Compound 392] | – | 0.1 to 0.25 (≈ 0.245 to 0.611 µM)
O=C1c2ccncc2C2(c3ccc(Cl)cc3)N1CCN2C(=O)c1cccnc1Oc1ccc(Cl)cc1 (stereo not drawn) [Compound 395] | – | 0.25 to 1 (≈ 0.483 to 1.93 µM)
CCSc1ncccc1C(=O)N1CCN2C(=O)c3ccncc3C21c1ccc(Cl)cc1 (stereo not drawn) [Compound 397] | – | 0.1 to 0.25 (≈ 0.222 to 0.554 µM)
CCCSc1ncccc1C(=O)N1CCN2C(=O)c3ccncc3C21c1ccc(Cl)cc1 (stereo not drawn) [Compound 401] | – | 0.1 to 0.25 (≈ 0.215 to 0.538 µM)
O=C1c2ccncc2C2(c3ccc(Cl)cc3)N1CCN2C(=O)c1cccnc1Oc1ccccc1 (stereo not drawn) [Compound 404] | – | 0.25 to 1 (≈ 0.518 to 2.07 µM)

Continued, values first:

EC50 [1] [mg/L] | EC50 [2] [mg/L] | SMILES
< 0.1 | – | Cn1cc(C(=O)N2CCN3C(=O)c4ccccc4C32c2ccc(Cl)cc2)c(C(F)(F)F)n1 (stereo not drawn) [Compound 333]
0.1 to 0.25 (≈ 0.253 to 0.632 µM) | – | O=C(c1cscn1)N1CCN2C(=O)c3ccccc3C12c1ccc(Cl)cc1 (stereo not drawn) [Compound 334]
< 0.1 | – | Cc1nonc1C(=O)N1CCN2C(=O)c3ccccc3C21c1ccc(Cl)cc1 (stereo not drawn) [Compound 335]
– | 0.25 to 1 (≈ 0.613 to 2.45 µM) | O=C(c1ccc(F)cc1)N1CCN2C(=O)c3ccncc3C12c1ccccc1Cl (stereo not drawn) [Compound 344]
– | 0.1 to 0.25 (≈ 0.221 to 0.553 µM) | O=C(c1ccc(F)cc1)N1CCN2C(=O)c3ccncc3C12c1ccc(Br)cc1 (stereo not drawn) [Compound 358]
– | 0.25 to 1 (≈ 0.613 to 2.45 µM) | O=C(c1ccc(F)cc1)N1CCN2C(=O)c3cccnc3C12c1ccc(Cl)cc1 (stereo not drawn) [Compound 360]
– | < 0.1 | O=C(c1cccnc1)N1CCN2C(=O)c3ccncc3C12c1ccc(Cl)cc1 (stereo not drawn) [Compound 363]
– | < 0.1 | O=C(c1ccc(F)nc1)N1CCN2C(=O)c3ccncc3C12c1ccc(Br)cc1 (stereo not drawn) [Compound 366]
– | 0.25 to 1 (≈ 0.552 to 2.21 µM) | O=C(c1ccc(F)nc1)N1CCN2C(=O)c3cnccc3C12c1ccc(Br)cc1 (stereo not drawn) [Compound 367]
– | < 0.1 | O=C(c1csc(-c2cccs2)n1)N1CCN2C(=O)c3ccncc3C12c1ccc(Cl)cc1 (stereo not drawn) [Compound 377]
– | 0.1 to 0.25 (≈ 0.224 to 0.561 µM) | O=C1c2ccncc2C2(c3ccc(Cl)cc3)N1CCN2C(=O)c1csc2ccccc12 (stereo not drawn) [Compound 379]
– | < 0.1 | O=C(c1csc(-c2cccnc2)n1)N1CCN2C(=O)c3ccncc3C12c1ccc(Cl)cc1 (stereo not drawn) [Compound 381]
– | 0.25 to 1 (≈ 0.633 to 2.53 µM) | Cc1cc(C(=O)N2CCN3C(=O)c4ccncc4C23c2ccc(Cl)cc2)no1 (stereo not drawn) [Compound 382]
– | < 0.1 | Cc1cc(C(=O)N2CCN3C(=O)c4ccncc4C32c2ccc(Cl)cc2)c(C(F)(F)F)o1 (stereo not drawn) [Compound 385]
– | 0.1 to 0.25 (≈ 0.212 to 0.531 µM) | Cc1nn(-c2ccccc2)nc1C(=O)N1CCN2C(=O)c3ccncc3C21c1ccc(Cl)cc1 (stereo not drawn) [Compound 387]
– | 0.25 to 1 (≈ 0.532 to 2.13 µM) | Cc1oc(-c2ccccc2)cc1C(=O)N1CCN2C(=O)c3ccncc3C21c1ccc(Cl)cc1 (stereo not drawn) [Compound 394]
– | 0.1 to 0.25 (≈ 0.229 to 0.572 µM) | CSc1ncccc1C(=O)N1CCN2C(=O)c3ccncc3C21c1ccc(Cl)cc1 (stereo not drawn) [Compound 398]
– | 0.25 to 1 (≈ 0.507 to 2.03 µM) | CCCCCSc1ncccc1C(=O)N1CCN2C(=O)c3ccncc3C21c1ccc(Cl)cc1 (stereo not drawn) [Compound 399]
– | 0.1 to 0.25 (≈ 0.213 to 0.532 µM) | O=C(c1cncc(Br)c1)N1CCN2C(=O)c3ccncc3C12c1ccc(Cl)cc1 (stereo not drawn) [Compound 405]
– | 0.25 to 1 (≈ 0.509 to 2.04 µM) | O=C(c1cncc(C#Cc2ccccc2)c1)N1CCN2C(=O)c3ccncc3C12c1ccc(Cl)cc1 (stereo not drawn) [Compound 406]
